Patent EP0166726B1, “10-ETHYL-8,10-DIDEAZAMINOPTERINS” (SRI INTERNATIONAL, priority 1983, dated 1985)

System: L-1210 leukemia cells
Test: L-1210 murine leukemia assay (increase in median life span)
Type: in vivo, Mice
Conditions: for ILS%: increase in median life span vs untreated controls, at LD10 dose, 5 injections every other day starting one day after transplantation of 10^6 tumor cells/mouse; for LD10 Dose: mice, injected once per day every other day, total of 5 injections; for Cells Remaining: number of neoplastic cells remaining after treatment at LD10 dose, 10^6 tumor cells/mouse transplanted
Experimental: This is a standard assay that is used to evaluate the efficacy of compounds as antineoplastic agents for treating humans. The assay is described by D. J. Hitchinson, D. C. Robinson, D. Martin, O. L. Ittenson and Dillenberg, Journal Cancer Research, (1962) 22:57-72. It is a procedure for evaluating a compound for increase in median life span in treated animals and unteated controls both infected with L-1210 leukemia cells. […] Mice are injected once per day every other day for a total of 5 injections starting one day after transplantation of 10^6 tumor cells/mouse. The results of this assay with several, 8,10-dideazaminopterin analogs were as follows:
It is apparent from the above results that the life spans of the mice were increased considerably by administration of the invention compound and that this compound has surprising activity when compared to the non-alkylated and n-propyl or methyl analogs. The % ILS data represent comparisons of log values, and thus differences in the % ILS which appear minor mask large differences in cytotoxic activity. Thus, as shown, the ethyl derivative is 40 times as effective as the unsubstituted compound and 100 times as effective as the n-propyl derivative in terms of reducing the number of neoplastic cells; i.e., e.g., the number of cells remaining after 10-ethyl analog treatment is only 1/40 and 1/100 of that remaining from treatment with the above analogs, respectively. The assay and these conclusions are described by Schabel, F. M., Symposium on Proliferation and Spread of Neoplastic Cells, M. D. Anderson, Tumor Institute, Houston, Texas (1968), p. 379 ff.

| Compound | ILS% | LD10 Dose [Mg/Kg] | Cells Remaining | times as effective as the unsubstituted compound in terms of reducing the number of neoplastic cells (relative to 8,10-dideazaminopterin, ratio of cells remaining) [times] | times as effective as the n-propyl derivative in terms of reducing the number of neoplastic cells (relative to 10-n-propyl-8,10-dideazaminopterin, ratio of cells remaining) [times] |
| --- | --- | --- | --- | --- | --- |
| 10-Propyl-8,10-dideazaminopterin [10-n-propyl-8,10-dideazaminopterin] | +176% | 6.0 | 10,000 |  |  |
| 10-ethyl-8,10-dideazaminopterin | +235% | 1.5 | 100 | 40 | 100 |
| 10-Methyl-8,10-dideazaminopterin | +203% | 0.6 | 1000 |  |  |
| Nc1nc(N)c2nc(CCc3ccc(C(=O)N[C@@H](CCC(=O)O)C(=O)O)cc3)ccc2n1 [8,10-dideazaminopterin] | +189% | 0.75 | 4000 |  |  |
| CN(Cc1cnc2nc(N)nc(N)c2n1)c1ccc(C(=O)N[C@@H](CCC(=O)O)C(=O)O)cc1 [Methotrexate] | +187% | 15 |  |  |  |
